Results from PMC3207901, “Nodulin 41, a novel late nodulin of common bean with peptidase activity” (BMC Plant Biology, 2011).
Where a SMILES comes first, the peptide text is derived from it. [ ]: non-standard residue; d: D form. The star is where a group is joined. Sta = CC(C)C[C@H](N)[C@@H](O)CC(=O)O; Isovaleryl = CC(C)CC(=O)*

Target: T1, PvNod41 (nodulin 41) (Phaseolus vulgaris, UniProt G1FTR5)
T1 construct: gene Nod41; native mature enzyme purified from 21 dpi root nodules; 437-residue precursor, 22-residue putative signal peptide and 50-residue prosegment removed; single chain, 41 kDa on SDS-PAGE
T1 sequence (G1FTR5 73-437): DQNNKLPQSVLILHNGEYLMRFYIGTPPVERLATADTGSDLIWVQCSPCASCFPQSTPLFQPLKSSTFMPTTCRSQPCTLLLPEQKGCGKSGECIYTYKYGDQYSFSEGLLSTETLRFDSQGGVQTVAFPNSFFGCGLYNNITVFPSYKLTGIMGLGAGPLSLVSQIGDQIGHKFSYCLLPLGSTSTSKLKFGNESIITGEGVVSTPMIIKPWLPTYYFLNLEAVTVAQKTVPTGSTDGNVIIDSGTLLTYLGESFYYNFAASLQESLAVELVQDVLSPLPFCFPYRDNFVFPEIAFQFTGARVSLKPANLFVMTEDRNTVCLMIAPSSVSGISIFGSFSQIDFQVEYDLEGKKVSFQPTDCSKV
Assay: casein degradation, SDS-PAGE densitometry
Assay type: biochemical
Conditions: 2 µM, casein substrate, 50 mM sodium citrate, pH 4.5, 37°C, 15 min preincubation
Excerpt: casein degradation, SDS-PAGE densitometry on PvNod41 (nodulin 41)

## CC(C)CC(=O)N[C@H](C(=O)N[C@H](C(=O)N[C@@H](CC(C)C)[C@@H](O)CC(=O)N[C@@H](C)C(=O)N[C@@H](CC(C)C)[C@@H](O)CC(=O)O)C(C)C)C(C)C [Pepstatin A] (Isovaleryl-VV[Sta]A[Sta]-OH)
  % of residual activity (n = 3): 55 (± 5) %
